Source: article PMC5435703 (Scientific Reports, 2017)
In brackets after ≈: the same amount, converted by molar mass. Entries after “also recorded” stand apart in the source; their conditions may differ. Like-named read-outs stand apart in the source and are kept apart here. Marks after values point to notes of the source that are not given here.

What was measured:
[1] = system: MRSA BAA-1707; test: MIC broth microdilution assay; type: cell-based, Staphylococcus aureus; settings: for MIC: Staphylococcus aureus
[2] = system: MRSA BAA-44; test: MIC broth microdilution assay; type: cell-based; settings: Staphylococcus aureus
[3] = system: MRSA-1; test: MIC broth microdilution assay; type: cell-based, Staphylococcus aureus; settings: Staphylococcus aureus, MRSA
[4] = system: MRSA-2; test: MIC broth microdilution assay; type: cell-based, Staphylococcus aureus; settings: Staphylococcus aureus, MRSA
[5] = system: MRSE 35984; test: MIC broth microdilution assay; type: cell-based, Staphylococcus epidermidis; settings: for MIC: Staphylococcus epidermidis, MRSE
[6] = system: S. epi 12228; test: MIC broth microdilution assay; type: cell-based, Staphylococcus epidermidis; settings: Staphylococcus epidermidis, 12228
[7] = system: MtB H37Ra; test: MIC assay for Mycobacterium tuberculosis; type: cell-based; settings: 168 h, seven days
[8] = LDH release assay for HeLa cytotoxicity; type: cell-based; settings: human, HeLa cells; LDH release, 24 hours; tested at 25, 50 and 100 µM; read-out: HeLa Cytotox. IC50
[9] = system: HeLa cells; test: LDH release assay for HeLa cytotoxicity; type: cell-based; settings: 100 µM
[10] = system: MRSA BAA-1707; test: MIC assay with metal(II) cation co-treatment; type: cell-based, Staphylococcus aureus
[11] = Chemical stability in aqueous formulations; type: physicochemical; settings: room temperature
[12] = Hemolysis assay with red blood cells; settings: human, pH 7.2
[13] = system: VRE 700221; test: MIC broth microdilution assay; type: cell-based, Enterococcus faecium; settings: for MIC: Enterococcus, VRE
[14] = system: four MRSA isolates; test: MIC assays, panel of four MRSA isolates; type: cell-based; settings: Staphylococcus aureus, range over isolates, read-out: MIC against a panel of four MRSA isolates
[15] = system: S. epidermidis; test: MIC assays, S. epidermidis strains; type: cell-based; settings: Staphylococcus epidermidis; range over strains
[16] = system: MRSA BAA-1707; test: Calgary Biofilm Device (CBD) MBC/MBEC assay; type: cell-based, Staphylococcus aureus; settings: for MBC: Staphylococcus aureus
[17] = system: MRSE 35984; test: Calgary Biofilm Device (CBD) MBC/MBEC assay; type: cell-based, Staphylococcus epidermidis; settings: for MBC: Staphylococcus epidermidis, MRSE, CBD, planktonic killing, read-out: MRSE 35984 MBC; for MRSE Biofilm Eradication MBEC / MRSE Planktonic Killing MBC: supplement page 28, single CBD plate
[18] = system: VRE 700221; test: Calgary Biofilm Device (CBD) MBC/MBEC assay; type: cell-based, Enterococcus faecium
[19] = system: MRSA BAA-1707; test: Macromolecular synthesis inhibition assay with [3H]-labeled precursors; type: cell-based, Staphylococcus aureus
Procedure: To characterize the antibacterial mechanism of action for HP small molecules, we investigated the effects HP 1 has against MRSA BAA-1707 on global biosynthetic pathways in rapidly-dividing (exponentially-growing) planktonic cells through quantifying the incorporation of various [^3H]-labeled precursors into their corresponding macromolecules. For these experiments, MRSA-1707 cultures were treated with [^3H]-thymidine (DNA biosynthesis), [^3H]-uridine (RNA biosynthesis) and [^3H]-leucine (protein biosynthesis) in the presence of HP 1 and antibiotic controls (4–16 x MIC).
Macromolecular syntheses experiments were carried out in methicillin-resistant Staphylococcus aureus BAA-1707. An overnight culture (100 µL) of S. aureus BAA-1707 was sub-cultured into 10 mL of fresh TSBG media which was allowed to grow to exponential phase (OD600 = 0.2–0.3) before transferring 500 µL to each well in a 24 well-plate. The test compounds and vehicle control (DMSO) were added to achieve the desired concentrations relative to their MIC values against S. aureus BAA-1707. Treated cultures were then incubated at 37 °C for 30 minutes before radioactive precursors for DNA ([^3H] thymidine (0.5 µCi)), RNA ([^3H] uridine (0.5 µCi)) and protein ([^3H] leucine (1 µCi)) were added. […] DMSO served as our negative control. DNA and RNA radiolabeled cultures were then incubated in 37 °C for 15 minutes before being stopped by adding 60 µL of cold 5% trichloroacetic acid (TCA). The protein synthesis experiment was stopped after 40 minutes by adding 60 µL cold TCA. These mixtures were then incubated at 2 °C for at least 30 minutes before the contents of the plates were transferred onto glass microfiber filters (24 mm) and washed 5 times with 1 mL of 5% TCA. The filters are allowed to dry overnight before 3.5 mL of the scintillation fluid was added to the scintillation vials containing the filters and the radiation counts were measured using liquid scintillation LS 6500.
H.) Macromolecular Synthesis Inhibition Assay: […]

[20] = Table 1, three independent experiments, read-out: MIC MRSA BAA-1707
[21] = Table 3, read-out: MRSA BAA-1707 MIC
[22] = single plate shown as picture, read-out: MIC (µM), MIC Assay against MRSA BAA-1707
[23] = Table 1, read-out: MIC MRSA BAA-44
[24] = single plate shown as picture, read-out: MIC (µM), MIC Assay Against MRSA-1
[25] = Table 1, read-out: MIC MRSE 35984
[26] = Table 3, read-out: MRSE 35984 MIC
[27] = Table 1, read-out: MIC S. epi 12228
[28] = single plate shown as picture, read-out: MIC (µM), MIC Assay Against MRSA-2
[29] = single plate shown as picture, read-out: MIC (µM), MIC Assay Against S. epidermidis 12228
[30] = Table 1, read-out: MIC VRE 700221
[31] = Table 3, read-out: VRE 700221 MIC
[32] = 24 h, CBD, planktonic killing, 24 hours treatment, read-out: MRSA BAA-1707 MBC
[33] = 24 h, supplement page 27, second CBD plate, read-out: MRSA Planktonic Killing MBC
[34] = supplement page 28, single CBD plate

| SMILES | MIC [1, 20] | MIC [1, 21] | MIC [1, 22] | MIC [2, 23] | MIC ([3]; Table 1, read-out: MIC MRSA-1) | MIC [3, 24] | MIC ([4]; Table 1, read-out: MIC MRSA-2) | MIC [5, 25] | MIC [5, 26] | MIC [6, 27] | MIC [7] | IC50 at 24 h [8] | HeLa cell cytotoxicity at 100 µM [9] | chemically stable in aqueous formulations [11] | hemolysis at 1 h, 200 µM [12] | MIC [4, 28] | MIC MRSE 35984 ([5]; Table 1) | MIC [6, 29] | MIC [13, 30] | MIC [13, 31] | other results |
| --- | --- | --- | --- | --- | --- | --- | --- | --- | --- | --- | --- | --- | --- | --- | --- | --- | --- | --- | --- | --- | --- |
| COCCOCCOCCOCCOC(=O)Oc1c(Br)cc(Br)c2nc3c(C)cccc3nc12 [HP 25] | 0.003 µM (≈ 0.00181 µg/mL) | 0.003 µM (≈ 0.00181 µg/mL) | 0.003 µM (≈ 0.00181 µg/mL) | 0.013 µM (≈ 0.00783 µg/mL) | ≤ 0.1 µM | 0.1 µM (≈ 0.0602 µg/mL) | ≤ 0.1 µM | 0.15 µM (≈ 0.0903 µg/mL) | 0.15 µM (≈ 0.0903 µg/mL) | ≤ 0.1 µM | 12500 nM (≈ 7.53 µg/mL) | > 100 µM | no HeLa cell cytotoxicity | > 1 month | ≤ 1% |  |  |  |  |  | MIC ([10]; Staphylococcus aureus, Cu(II) co-treatment plate, lanes without metal, read-out: MIC): 0.1 µM; MIC ([10]; Staphylococcus aureus, Fe(II) co-treatment plate, lanes without metal, read-out: MIC): 0.1 µM; MIC ([10]; Staphylococcus aureus, Mg(II) co-treatment plate, lanes without metal, read-out: MIC): 0.003 µM; MIC ([10]; Staphylococcus aureus, Table 2, MRSA BAA-1707, no metal(II) cation added, read-out: MIC): 0.0047 µM; MIC ([10]; Staphylococcus aureus, Zn(II) extended plate assay, lanes without metal, read-out: MIC): 0.003 µM; MIC ([10]; Staphylococcus aureus, copper(II) at 200 µM co-treatment, read-out: MIC w/Cu2+): > 100 µM; MIC ([10]; Staphylococcus aureus, iron(II) at 200 µM co-treatment, read-out: MIC w/Fe2+): 25 µM; MIC ([10]; Staphylococcus aureus, magnesium(II) at 200 µM co-treatment, read-out: MIC w/Mg2+): 0.0047 µM; MIC ([10]; Staphylococcus aureus, single plate, 200 µM Cu(II), read-out: MIC (µM) + Cu(II)): > 100 µM; MIC ([10]; Staphylococcus aureus, single plate, 200 µM Fe(II), read-out: MIC (µM) + Fe(II)): 25 µM; MIC ([10]; Staphylococcus aureus, single plate, 200 µM Mg(II), read-out: MIC (µM) + Mg(II)): 0.003 µM; MIC ([10]; Staphylococcus aureus, zinc(II) at 200 µM co-treatment, read-out: MIC w/Zn2+): 7e-05 µM; MIC ([10]; extended plate assay, 200 µM Zn(II), read-out: MIC (µM) + Zn(II)): 0.00005 µM |
| CCc1cccc2nc3c(O)c(Br)cc(Br)c3nc12 [HP 18] | 0.05 to 0.3 µM (≈ 0.0191 to 0.115 µg/mL) | ≤ 0.1 µM | 0.1 µM (≈ 0.0382 µg/mL) |  | 0.15 µM (≈ 0.0573 µg/mL) | 0.2 µM (≈ 0.0764 µg/mL) | 0.39 µM (≈ 0.149 µg/mL) | 0.1 to 0.78 µM (≈ 0.0382 to 0.298 µg/mL) | ≤ 0.1 µM | 0.3 µM (≈ 0.115 µg/mL) | 25000 nM (≈ 9.55 µg/mL) | > 100 µM |  |  | 1.7% | 0.39 µM (≈ 0.149 µg/mL) | ≤ 0.10^b µM | 0.39 µM (≈ 0.149 µg/mL) | 0.15 µM (≈ 0.0573 µg/mL) | 0.15 µM (≈ 0.0573 µg/mL) | MIC MRSA BAA-1707 ([1]; Table 1, three independent experiments): ≤ 0.10^b µM; MIC ([5]; single plate shown as picture, read-out: MIC (µM), MIC Assay Against MRSE 35984): 0.1 µM (≈ 0.0382 µg/mL); MIC ([13]; single plate shown as picture, read-out: MIC (µM), MIC Assay Against VRE 700221): 0.2 µM (≈ 0.0764 µg/mL); MIC VRE 700221 ([13]; Table 1): 0.15^a µM; MIC [14]: 50 to 590 nM (≈ 0.0191 to 0.225 µg/mL); MIC [15]: 100 to 300 nM (≈ 0.0382 to 0.115 µg/mL) |
| Oc1c(Br)cc(Br)c2nc3ccccc3nc12 [HP 1, 2,4-dibromo-1-hydroxyphenazine] |  |  |  |  | 0.78 µM (≈ 0.276 µg/mL) |  | 2.35 µM (≈ 0.832 µg/mL) | 2.35 µM (≈ 0.832 µg/mL) | 2.35 µM (≈ 0.832 µg/mL) | 2.35 µM (≈ 0.832 µg/mL) | 25000 nM (≈ 8.85 µg/mL) | ~100 µM |  |  | ≤ 1% | 3.13 µM (≈ 1.11 µg/mL) | 2.35^a µM | 3.13 µM (≈ 1.11 µg/mL) |  |  | MRSA-1707 Biofilm Eradication MBEC ([16]; Figure 7A, single CBD plate): 50 µM; MBC [16, 32]: 50000 nM (≈ 17.7 µg/mL); MBC ([16]; 24 h, supplement page 27, first CBD plate, read-out: MRSA Planktonic Killing MBC): 25000 nM (≈ 8.85 µg/mL); MBC [16, 33]: 25000 nM (≈ 8.85 µg/mL); MBC ([16]; Figure 7A, single CBD plate, read-out: MRSA-1707 Planktonic Eradication MBC): 25000 nM (≈ 8.85 µg/mL); MBC [17]: 23500 nM (≈ 8.32 µg/mL); MRSE Biofilm Eradication MBEC [17]: 250 µM; MRSE Planktonic Killing MBC [17]: 15600 nM; MBC ([18]; Enterococcus, VRE, CBD, planktonic killing, read-out: VRE 700221 MBC): 18800 nM (≈ 6.66 µg/mL); VRE Biofilm Eradication MBEC [18, 34]: 12.5 µM; VRE Planktonic Killing MBC [18, 34]: 12500 nM; RNA biosynthesis inhibition ([3H]-uridine) ([19]; 4 x MIC): inhibits; protein biosynthesis inhibition ([3H]-leucine) ([19]; 4 x MIC): inhibits; DNA biosynthesis inhibition ([3H]-thymidine) ([19]; 8 x MIC): does not inhibit; also recorded: not inhibiting |
| COCCOCCOCCOCCOC(=O)Oc1c(Br)cc(Br)c2nc3ccccc3nc12 [HP 24] |  |  |  | 1.56 µM (≈ 0.918 µg/mL) |  |  | 2.35 µM (≈ 1.38 µg/mL) | 1.56 µM (≈ 0.918 µg/mL) | 1.56 µM (≈ 0.918 µg/mL) | 0.78 µM (≈ 0.459 µg/mL) | 25000 nM (≈ 14.7 µg/mL) | > 100 µM | no HeLa cell cytotoxicity | > 1 month | 2.4% |  |  |  | 6.25 µM (≈ 3.68 µg/mL) | 6.25 µM (≈ 3.68 µg/mL) | MIC ([2]; single plate shown as picture, read-out: MIC (µM), MIC Assay Against MRSA BAA-44): 1.56 µM (≈ 0.918 µg/mL); MBC [16, 32]: 75000 nM (≈ 44.1 µg/mL); MBC [16, 33]: 100000 nM (≈ 58.8 µg/mL); MBC [17]: 75000 nM (≈ 44.1 µg/mL); MRSE Biofilm Eradication MBEC [17]: 100 µM; MRSE Planktonic Killing MBC [17]: 50000 nM |
